Results from PubChem BioAssay AID2060891 (Molecular Pharmacology Branch, DTP, NCI, 2025).

Tested on: K98450-129-R-PDC complex spheroid growth, percent test/control
Experiment: Anticancer human tumor K98450-129-R-PDC patient-derived colon adenocarcinoma cell line growth inhibition [RAS]
Settings: for IC50: curve of first compound; for viability, T/C: stronger effect = lower value
Procedure, shortened: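 Agents were tested in combination matrices in half-log decrements from a top concentration at or near clinical Cmax (10 microM if undetermined). Targets were multi-cell spheroids of tumour lines plus HUVEC and MSC stromal cells.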

[1] = second compound 0.000949 µM, first compound 0.0316 µM
[2] = second compound 0.000949 µM, first compound 0.1 µM
[3] = second compound 0.000949 µM, first compound 0.316 µM
[4] = second compound 0.000949 µM, first compound 1 µM
[5] = second compound 0.000949 µM, first compound 3.16 µM
[6] = second compound 0.000949 µM, first compound 10 µM
[7] = second compound 0.003 µM, first compound 0.0316 µM
[8] = second compound 0.003 µM, first compound 0.1 µM
[9] = second compound 0.003 µM, first compound 0.316 µM
[10] = second compound 0.003 µM, first compound 1 µM
[11] = second compound 0.003 µM, first compound 3.16 µM
[12] = second compound 0.003 µM, first compound 10 µM
[13] = second compound 0.00949 µM, first compound 0.0316 µM
[14] = second compound 0.00949 µM, first compound 0.1 µM
[15] = second compound 0.00949 µM, first compound 0.316 µM
[16] = second compound 0.00949 µM, first compound 1 µM
[17] = second compound 0.00949 µM, first compound 3.16 µM
[18] = second compound 0.00949 µM, first compound 10 µM
[19] = second compound 0.03 µM, first compound 0.0316 µM
[20] = second compound 0.03 µM, first compound 0.1 µM
[21] = second compound 0.03 µM, first compound 0.316 µM
[22] = second compound 0.03 µM, first compound 1 µM
[23] = second compound 0.03 µM, first compound 3.16 µM
[24] = second compound 0.03 µM, first compound 10 µM
[25] = second compound 0.0949 µM, first compound 0.0316 µM
[26] = second compound 0.0949 µM, first compound 0.1 µM
[27] = second compound 0.0949 µM, first compound 0.316 µM
[28] = second compound 0.0949 µM, first compound 1 µM
[29] = second compound 0.0949 µM, first compound 3.16 µM
[30] = second compound 0.0949 µM, first compound 10 µM
[31] = second compound 0.3 µM, first compound 0.0316 µM
[32] = second compound 0.3 µM, first compound 0.1 µM
[33] = second compound 0.3 µM, first compound 0.316 µM
[34] = second compound 0.3 µM, first compound 1 µM
[35] = second compound 0.3 µM, first compound 3.16 µM
[36] = second compound 0.3 µM, first compound 10 µM
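Note: spheroids exposed to agents for seven days before the viability readout.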
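Throughout, for viability, T/C: luminescence used as a proxy for viable cell amount.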

Compound: CCc1c2c(nc3ccc(O)cc13)-c1cc3c(c(=O)n1C2)COC(=O)[C@]3(O)CC + CCn1c(-c2cccnc2C(C)OC)c2c3cc(ccc31)N1CCOC(CC(NC(=O)C(C(C)C)N(C)C(=O)C3(F)CCN(C(=O)C#CC(C)(C)N(C)C)CC3)C(=O)N3CCCC(N3)C(=O)OCC(C)(C)C2)C1
- IC50 (second compound 0.000949 µM): 16.9 nM
- IC50 (second compound 0.003 µM): 2.54 nM
- IC50 (second compound 0.00949 µM): < 0.949 nM
- IC50 (second compound 0.03 µM): < 0.949 nM
- IC50 (second compound 0.0949 µM): < 0.949 nM
- IC50 (second compound 0.3 µM): < 0.949 nM
- viability, T/C (second compound 0.000949 µM, first compound 0.000949 µM): 71.1%
- viability, T/C (second compound 0.000949 µM, first compound 0.003 µM): 64.6%
- viability, T/C (second compound 0.000949 µM, first compound 0.00949 µM): 60.9%
- viability, T/C (second compound 0.000949 µM, first compound 0.03 µM): 39.8%
- viability, T/C (second compound 0.000949 µM, first compound 0.0949 µM): 30.2%
- viability, T/C (second compound 0.000949 µM, first compound 0.3 µM): 25.4%
- viability, T/C (second compound 0.003 µM, first compound 0.000949 µM): 58.1%
- viability, T/C (second compound 0.003 µM, first compound 0.003 µM): 48.9%
- viability, T/C (second compound 0.003 µM, first compound 0.00949 µM): 38.9%
- viability, T/C (second compound 0.003 µM, first compound 0.03 µM): 30.9%
- viability, T/C (second compound 0.003 µM, first compound 0.0949 µM): 24.3%
- viability, T/C (second compound 0.003 µM, first compound 0.3 µM): 15.8%
- viability, T/C (second compound 0.00949 µM, first compound 0.000949 µM): 44.3%
- viability, T/C (second compound 0.00949 µM, first compound 0.003 µM): 36.2%
- viability, T/C (second compound 0.00949 µM, first compound 0.00949 µM): 32.8%
- viability, T/C (second compound 0.00949 µM, first compound 0.03 µM): 22.7%
- viability, T/C (second compound 0.00949 µM, first compound 0.0949 µM): 16.9%
- viability, T/C (second compound 0.00949 µM, first compound 0.3 µM): 14%
- viability, T/C (second compound 0.03 µM, first compound 0.000949 µM): 32.8%
- viability, T/C (second compound 0.03 µM, first compound 0.003 µM): 40.1%
- viability, T/C (second compound 0.03 µM, first compound 0.00949 µM): 25.6%
- viability, T/C (second compound 0.03 µM, first compound 0.03 µM): 24.7%
- viability, T/C (second compound 0.03 µM, first compound 0.0949 µM): 19.5%
- viability, T/C (second compound 0.03 µM, first compound 0.3 µM): 11.6%
- viability, T/C (second compound 0.0949 µM, first compound 0.000949 µM): 35.1%
- viability, T/C (second compound 0.0949 µM, first compound 0.003 µM): 33.8%
- viability, T/C (second compound 0.0949 µM, first compound 0.00949 µM): 27.9%
- viability, T/C (second compound 0.0949 µM, first compound 0.03 µM): 22.3%
- viability, T/C (second compound 0.0949 µM, first compound 0.0949 µM): 20%
- viability, T/C (second compound 0.0949 µM, first compound 0.3 µM): 11.5%
- viability, T/C (second compound 0.3 µM, first compound 0.000949 µM): 36%
- viability, T/C (second compound 0.3 µM, first compound 0.003 µM): 32.7%
- viability, T/C (second compound 0.3 µM, first compound 0.00949 µM): 28.5%
- viability, T/C (second compound 0.3 µM, first compound 0.03 µM): 18.3%
- viability, T/C (second compound 0.3 µM, first compound 0.0949 µM): 15.4%
- viability, T/C (second compound 0.3 µM, first compound 0.3 µM): 10.7%

Compound: NC1c2ccccc2OC12CCN(c1cnc3c(N4CCCc5ncccc54)n[nH]c3n1)CC2 (stereo unspecified) + CCn1c(-c2cccnc2C(C)OC)c2c3cc(ccc31)N1CCOC(CC(NC(=O)C(C(C)C)N(C)C(=O)C3(F)CCN(C(=O)C#CC(C)(C)N(C)C)CC3)C(=O)N3CCCC(N3)C(=O)OCC(C)(C)C2)C1
- IC50 (second compound 0.000949 µM): < 31.6 nM
- IC50 (second compound 0.003 µM): < 31.6 nM
- IC50 (second compound 0.00949 µM): < 31.6 nM
- IC50 (second compound 0.03 µM): < 31.6 nM
- IC50 (second compound 0.0949 µM): < 31.6 nM
- IC50 (second compound 0.3 µM): < 31.6 nM
- viability, T/C [1]: 44.8%
- viability, T/C [2]: 23.5%
- viability, T/C [3]: 11%
- viability, T/C [4]: 7.16%
- viability, T/C [5]: 6.94%
- viability, T/C [6]: 8.73%
- viability, T/C [7]: 21.5%
- viability, T/C [8]: 12.4%
- viability, T/C [9]: 7.71%
- viability, T/C [10]: 6.76%
- viability, T/C [11]: 6.52%
- viability, T/C [12]: 7.13%
- viability, T/C [13]: 15.6%
- viability, T/C [14]: 9.32%
- viability, T/C [15]: 7.2%
- viability, T/C [16]: 6.45%
- viability, T/C [17]: 6.54%
- viability, T/C [18]: 7.85%
- viability, T/C [19]: 12.8%
- viability, T/C [20]: 9.35%
- viability, T/C [21]: 7.81%
- viability, T/C [22]: 6.41%
- viability, T/C [23]: 6.04%
- viability, T/C [24]: 6.71%
- viability, T/C [25]: 11%
- viability, T/C [26]: 8.32%
- viability, T/C [27]: 6.62%
- viability, T/C [28]: 6.26%
- viability, T/C [29]: 5.17%
- viability, T/C [30]: 7.13%
- viability, T/C [31]: 9.99%
- viability, T/C [32]: 6.92%
- viability, T/C [33]: 6.83%
- viability, T/C [34]: 6.04%
- viability, T/C [35]: 5.35%
- viability, T/C [36]: 6.26%

Compound: CCC(CC)c1cc(NC2CCC(N)C2)n2nccc2n1 (stereo unspecified) + CCn1c(-c2cc(N3CCN(C)CC3)cnc2C(C)OC)c2c3cc(ccc31)-c1csc(n1)CC(NC(=O)C1CC1C)C(=O)N1CCCC(N1)C(=O)OCC(C)(C)C2
- IC50 (second compound 0.000949 µM): 4120 nM
- IC50 (second compound 0.003 µM): 3690 nM
- IC50 (second compound 0.00949 µM): 2350 nM
- IC50 (second compound 0.03 µM): 887 nM
- IC50 (second compound 0.0949 µM): < 31.6 nM
- IC50 (second compound 0.3 µM): < 31.6 nM
- viability, T/C [1]: 97.9%
- viability, T/C [2]: 88%
- viability, T/C [3]: 95.7%
- viability, T/C [4]: 65.1%
- viability, T/C [5]: 68.5%
- viability, T/C [6]: 16.4%
- viability, T/C [7]: 91.7%
- viability, T/C [8]: 83.2%
- viability, T/C [9]: 75.7%
- viability, T/C [10]: 66.3%
- viability, T/C [11]: 63.3%
- viability, T/C [12]: 13.3%
- viability, T/C [13]: 81.2%
- viability, T/C [14]: 60.9%
- viability, T/C [15]: 61%
- viability, T/C [16]: 62.7%
- viability, T/C [17]: 48.6%
- viability, T/C [18]: 12.9%
- viability, T/C [19]: 57.4%
- viability, T/C [20]: 44.2%
- viability, T/C [21]: 51.2%
- viability, T/C [22]: 49.9%
- viability, T/C [23]: 18.6%
- viability, T/C [24]: 12.2%
- viability, T/C [25]: 23.2%
- viability, T/C [26]: 20.8%
- viability, T/C [27]: 20.7%
- viability, T/C [28]: 17%
- viability, T/C [29]: 5.39%
- viability, T/C [30]: 10.7%
- viability, T/C [31]: 12.3%
- viability, T/C [32]: 13%
- viability, T/C [33]: 11.2%
- viability, T/C [34]: 11.6%
- viability, T/C [35]: 3.99%
- viability, T/C [36]: 12.9%
